Experimental data reported in paper PMC10504751, “Chalcone/1,3,4-Oxadiazole/Benzimidazole hybrids as novel anti-proliferative agents inducing apoptosis and inhibiting EGFR & BRAFV^600E” (BMC Chemistry, 2023).

Assays:
A549/ATCC = assay: NCI one-dose SRB anti-proliferative screen; format: cell-based; conditions: Homo sapiens; A549/ATCC, Non-Small Cell Lung Cancer; NCI one dose; read-out: Cell growth inhibition %
Method: (§1) The twenty-four synthesized compounds were submitted to the National Cancer Institute (NCI), USA. Eighteen hybrids 7a-h, 7k-r, 7u, and 7v were selected by NCI for one-dose assessment of their anti-proliferative activities at 10 µM dose by Sulforhodamine B colorimetric assay. The assessment was performed in 60 cell lines derived from nine tumor subpanels, comprising lung, leukemia, melanoma, colon, renal, CNS, prostate, breast, and ovarian cancer cell lines.
(§2) The methodology of the NCI anti-proliferative screening has been described in details elsewhere (http://www.dtp.nci.nih.gov).

CCRF-CEM = assay: NCI one-dose SRB anti-proliferative screen; format: cell-based; conditions: Homo sapiens; CCRF-CEM, Leukemia; NCI one dose; read-out: Cell growth inhibition %
Method: as §1, §2

COLO 205 = assay: NCI one-dose SRB anti-proliferative screen; format: cell-based; conditions: Homo sapiens; COLO 205, Colon cancer; NCI one dose; read-out: Cell growth inhibition %
Method: as §1, §2

EKVX = assay: NCI one-dose SRB anti-proliferative screen; format: cell-based; conditions: Homo sapiens; EKVX, Non-Small Cell Lung Cancer; NCI one dose; read-out: Cell growth inhibition %
Method: as §1, §2

HCC-2998 = assay: NCI one-dose SRB anti-proliferative screen; format: cell-based; conditions: Homo sapiens; HCC-2998, Colon cancer; NCI one dose; read-out: Cell growth inhibition %
Method: as §1, §2

HCT-15 = assay: NCI one-dose SRB anti-proliferative screen; format: cell-based; conditions: Homo sapiens; HCT-15, Colon cancer; NCI one dose; read-out: Cell growth inhibition %
Method: as §1, §2

HOP-62 = assay: NCI one-dose SRB anti-proliferative screen; format: cell-based; conditions: Homo sapiens; HOP-62, Non-Small Cell Lung Cancer; NCI one dose; read-out: Cell growth inhibition %
Method: as §1, §2

MALME-3M = assay: NCI one-dose SRB anti-proliferative screen; format: cell-based; conditions: Homo sapiens; MALME-3M, Melanoma; NCI one dose; read-out: Cell growth inhibition %
Method: as §1, §2

NCI-H226 = assay: NCI one-dose SRB anti-proliferative screen; format: cell-based; conditions: Homo sapiens; NCI-H226, Non-Small Cell Lung Cancer; NCI one dose; read-out: Cell growth inhibition %
Method: as §1, §2

NCI-H23 = assay: NCI one-dose SRB anti-proliferative screen; format: cell-based; conditions: Homo sapiens; NCI-H23, Non-Small Cell Lung Cancer; NCI one dose; read-out: Cell growth inhibition %
Method: as §1, §2

NCI-H322M = assay: NCI one-dose SRB anti-proliferative screen; format: cell-based; conditions: Homo sapiens; NCI-H322M, Non-Small Cell Lung Cancer; NCI one dose; read-out: Cell growth inhibition %
Method: as §1, §2

NCI-H522 = assay: NCI one-dose SRB anti-proliferative screen; format: cell-based; conditions: Homo sapiens; NCI-H522, Non-Small Cell Lung Cancer; NCI one dose; read-out: Cell growth inhibition %
Method: as §1, §2

OVCAR-4 = assay: NCI one-dose SRB anti-proliferative screen; format: cell-based; conditions: Homo sapiens; OVCAR-4, Ovarian Cancer; NCI one dose; read-out: Cell growth inhibition %
Method: as §1, §2

SF-295 = assay: NCI one-dose SRB anti-proliferative screen; format: cell-based; conditions: Homo sapiens; SF-295, CNS Cancer; NCI one dose; read-out: Cell growth inhibition %
Method: as §1, §2

SK-MEL-5 = assay: NCI one-dose SRB anti-proliferative screen; format: cell-based; conditions: Homo sapiens; SK-MEL-5, Melanoma; NCI one dose; read-out: Cell growth inhibition %
Method: as §1, §2

SK-OV-3 = assay: NCI one-dose SRB anti-proliferative screen; format: cell-based; conditions: Homo sapiens; SK-OV-3, Ovarian Cancer; NCI one dose; read-out: Cell growth inhibition %
Method: as §1, §2

SN12C = assay: NCI one-dose SRB anti-proliferative screen; format: cell-based; conditions: Homo sapiens, SN 12C, Renal cancer, NCI one dose, read-out: Cell growth inhibition %
Method: as §1, §2

SNB-19 = assay: NCI one-dose SRB anti-proliferative screen; format: cell-based; conditions: Homo sapiens; SNB-19, CNS Cancer; NCI one dose; read-out: Cell growth inhibition %
Method: as §1, §2

SNB-75 = assay: NCI one-dose SRB anti-proliferative screen; format: cell-based; conditions: Homo sapiens; SNB-75, CNS Cancer; NCI one dose; read-out: Cell growth inhibition %
Method: as §1, §2

U251 = assay: NCI one-dose SRB anti-proliferative screen; format: cell-based; conditions: Homo sapiens, U-251; U251, CNS Cancer; NCI one dose; read-out: Cell growth inhibition %
Method: as §1, §2

UACC-62 = assay: NCI one-dose SRB anti-proliferative screen; format: cell-based; conditions: Homo sapiens; UACC-62, Melanoma; NCI one dose; read-out: Cell growth inhibition %
Method: as §1, §2

[1] = MTT cell viability assay in normal cells; format: cell-based; conditions: human, MCF-10A normal mammary epithelial cells
Method: To check the safety of prepared compounds and evaluate their selectivity towards tumor cells over normal ones, the toxicity of compounds 7a-x were evaluated by 3-(4,5-Dimethylthiazole-2-yl)-2,5-diphenyltetrazol (MTT) assay on the normal human mammary epithelial cell line (MCF-10 A). The human mammary epithelial cell lines were incubated for four days with a concentration of 50 µM of compounds 7a-x.
MTT assay was done to determine the effect of the synthesized compounds on the viability of mammary epithelial cells (MCF-10 A). Compounds 7a-x were incubated with MCF-10 A cells for 4 days at 50 µM concentration, and the viability of cells was determined. See Appendix A.
MTT assay was carried out to study the effect of compounds on mammary epithelial cells (MCF-10A).^7, ^8 The medium in which cells were propagated contained Dulbecco's modified Eagle's medium (DMEM)/ Ham's F-12 medium (1:1) supplemented with epidermal growth factor (20 ng/mL), hydrocortisone (500 ng/mL), insulin (10 μg/mL), 2 mM glutamine and 10% foetal calf serum. After every 2-3 days, the cells were passaged using trypsin ethylenediamine tetra acetic acid (EDTA). The cells were seeded at a density of 10^4 cells mL^-1 in flat-bottomed culture plates containing 96 wells each. After 24 h, medium was removed from the plates and the compounds in (in 0.1% DMSO) were added (in 200 μL medium to yield a final concentration of 0.1% v/v) to the wells of plates. A single compound was designated with four wells followed by incubation of plates for 96h at 37°C. After incubation, medium was removed completely from the plates followed by addition of MTT (0.4 mg/mL in medium) to each well and subsequent incubation of plates for 3h. MTT (along with the medium) was removed and DMSO (150μL) was added to each well of the culture plates, followed by vortexing and subsequent measurement of absorbance (at 540 nm) using microplate reader.

M14 = assay: NCI one-dose SRB anti-proliferative screen; format: cell-based; conditions: Homo sapiens; M14, Melanoma; NCI one dose; read-out: Cell growth inhibition %
Method: as §1, §2

| SMILES | inhibition at 10 µM (A549/ATCC) | inhibition at 10 µM (CCRF-CEM) | inhibition at 10 µM (COLO 205) | inhibition at 10 µM (EKVX) | inhibition at 10 µM (HCC-2998) | inhibition at 10 µM (HCT-15) | inhibition at 10 µM (HOP-62) | inhibition at 10 µM (MALME-3M) | inhibition at 10 µM (NCI-H226) | inhibition at 10 µM (NCI-H23) | inhibition at 10 µM (NCI-H322M) | inhibition at 10 µM (NCI-H522) | inhibition at 10 µM (OVCAR-4) | inhibition at 10 µM (SF-295) | inhibition at 10 µM (SK-MEL-5) | inhibition at 10 µM (SK-OV-3) | inhibition at 10 µM (SN12C) | inhibition at 10 µM (SNB-19) | inhibition at 10 µM (SNB-75) | inhibition at 10 µM (U251) | other results |
| --- | --- | --- | --- | --- | --- | --- | --- | --- | --- | --- | --- | --- | --- | --- | --- | --- | --- | --- | --- | --- | --- |
| COc1cc(/C=C/C(=O)c2ccc(NC(=O)CSc3nnc(-c4ccc5[nH]c(-c6ccccc6)nc5c4)o3)cc2)cc(OC)c1OC [Compound 7e, 2-{5-[2-Phenyl-1 H-benzo[d]imidazol-5-yl]-1,3,4-oxadiazol-2-ylthio}-N-{4-[(E)-3-(3,4,5-trimethoxyphenyl)acryloyl]phenyl}acetamide] | 0% | 62.5% | 0% | 0.96% | 0% | 12.4% | 0% | 0% | 0.66% | 7.28% | 3.06% | 4.71% | 0.46% | 0% | 7.81% | 0% | 9.21% | 15.6% | 18.9% | 19.4% | inhibition at 10 µM (UACC-62): 17%; viability at 96 h, 50 µM [1]: 87%; melting point: 143 to 144 °C |
| COc1ccc(-c2nc3cc(-c4nnc(SCC(=O)Nc5ccc(C(=O)/C=C/c6ccccc6)cc5)o4)ccc3[nH]2)cc1 [Compound 7k, 2-{5-[2-(4-Methoxyphenyl)-1 H-benzo[d]imidazol-5-yl]-1,3,4-oxadiazol-2-ylthio}-N-{4-[(E)-3-phenylacryloyl]phenyl}acetamide] | 5.82% | 48.2% | 0% | 13.9% | 0% | 23.5% | 0% | 26.6% | 35.4% | 16.9% | 0% | 17.3% | 19.1% | 17.8% | 49.2% | 0% | 15.2% | 0% | 33.7% | 33.2% | inhibition at 10 µM (M14): 12.9%; inhibition at 10 µM (UACC-62): 20.1%; viability at 96 h, 50 µM [1]: 91% |
| COc1ccc(-c2nc3cc(-c4nnc(SCC(=O)Nc5ccc(C(=O)/C=C/c6ccc(Cl)cc6)cc5)o4)ccc3[nH]2)cc1 [Compound 7l, 2-{5-[2-(4-Methoxyphenyl)-1 H-benzo[d]imidazol-5-yl]-1,3,4-oxadiazol-2-ylthio}-N-{4-[(E)-3-(4-chlorophenyl)acryloyl]phenyl}acetamide] | 0% | 3.98% | 0% | 0.26% | 0% | 13.9% | 0.53% | 3.9% | 5.85% | 5.55% | 0% | 4.71% | 0% | 4.12% | 1.12% | 0% | 11.7% | 0% | 5.35% | 5.67% | inhibition at 10 µM (M14): 0%; inhibition at 10 µM (UACC-62): 6.01%; viability at 96 h, 50 µM [1]: 89% |
| COc1ccc(/C=C/C(=O)c2ccc(NC(=O)CSc3nnc(-c4ccc5[nH]c(-c6ccc(OC)cc6)nc5c4)o3)cc2)cc1 [Compound 7m, 2-{5-[2-(4-Methoxyphenyl)-1 H-benzo[d]imidazol-5-yl]-1,3,4-oxadiazol-2-ylthio}-N-{4-[(E)-3-(4-methoxyphenyl)acryloyl]phenyl}acetamide] | 0% | 38.5% | 0% | 9.73% | 0% | 4.27% | 4.92% | 17.8% | 16% | 9.57% | 3.18% | 22.8% | 6.89% | 2.1% | 22.2% | 0% | 23.1% | 3.7% | 0% | 15.9% | inhibition at 10 µM (M14): 0%; inhibition at 10 µM (UACC-62): 14.9%; viability at 96 h, 50 µM [1]: 94% |
